Measured values reported in PMC9120017, “Inhibition mechanism of the chloride channel TMEM16A by the pore blocker 1PBC” (Nature Communications, 2022).
Like-named read-outs stand apart in the source and are kept apart here.

Target: T1, mouse TMEM16A mutant I640A (Mus musculus, UniProt Q8BHY3, I640A)
T1 construct: expressed in transfected cells; host or cells: HEK293T
T1 sequence (Q8BHY3 1-960 I640A): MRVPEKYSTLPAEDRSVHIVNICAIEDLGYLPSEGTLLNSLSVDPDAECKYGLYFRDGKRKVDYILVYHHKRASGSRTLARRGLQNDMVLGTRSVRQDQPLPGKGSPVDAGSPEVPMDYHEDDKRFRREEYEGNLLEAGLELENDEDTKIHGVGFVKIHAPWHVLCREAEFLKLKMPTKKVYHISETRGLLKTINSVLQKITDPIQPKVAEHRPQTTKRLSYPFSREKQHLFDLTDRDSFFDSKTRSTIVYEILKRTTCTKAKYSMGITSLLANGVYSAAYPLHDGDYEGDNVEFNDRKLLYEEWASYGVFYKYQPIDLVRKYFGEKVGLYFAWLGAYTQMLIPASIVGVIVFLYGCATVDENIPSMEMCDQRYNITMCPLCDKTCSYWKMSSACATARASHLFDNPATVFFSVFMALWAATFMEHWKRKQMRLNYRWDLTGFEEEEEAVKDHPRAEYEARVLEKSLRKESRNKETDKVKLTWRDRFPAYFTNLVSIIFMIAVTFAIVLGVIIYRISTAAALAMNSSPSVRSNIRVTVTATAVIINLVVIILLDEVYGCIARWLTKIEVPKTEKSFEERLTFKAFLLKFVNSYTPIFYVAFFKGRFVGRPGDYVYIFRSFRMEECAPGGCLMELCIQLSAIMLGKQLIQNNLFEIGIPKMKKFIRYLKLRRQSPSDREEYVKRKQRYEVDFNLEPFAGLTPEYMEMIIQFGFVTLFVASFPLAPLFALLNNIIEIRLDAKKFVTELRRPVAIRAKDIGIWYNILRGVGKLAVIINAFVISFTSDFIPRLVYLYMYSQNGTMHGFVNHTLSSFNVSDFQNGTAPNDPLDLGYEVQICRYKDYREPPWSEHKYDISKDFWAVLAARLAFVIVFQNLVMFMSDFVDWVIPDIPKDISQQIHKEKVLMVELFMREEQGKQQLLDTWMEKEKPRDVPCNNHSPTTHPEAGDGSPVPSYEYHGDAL
Assay: Inside-out patch recording of 1PBC block, mutant I640A
Format: cell-based
Settings: for IC50: 15 µM Ca2+
Protocol: HEK293T cells (ATCC CRL-1573) were maintained in Dulbecco’s modified Eagle’s medium (DMEM; Sigma-Aldrich) supplemented with 10 U ml^−1 penicillin, 0.1 mg ml^−1 streptomycin (Sigma-Aldrich), 2 mM L-glutamine (Sigma-Aldrich), and 10% FBS (Sigma-Aldrich) in a humidified atmosphere containing 5% CO2 at 37 °C. HEK293S GnTI^− cells (ATCC CRL-3022) were maintained in HyClone HyCell TransFx-H medium (GE Healthcare) supplemented with 10 U ml^−1 penicillin, 0.1 mg ml^−1 streptomycin, 4 mM L-glutamine, 0.15% poloxamer 188 (Sigma-Aldrich), and 1% FBS in an atmosphere containing 5% CO2 at 185 rpm at 37 °C. The ac splice variant of mouse TMEM16A (UniProt ID: Q8BHY3), mouse TMEM16B (UniProt ID: Q8CFW1), or mouse TMEM16F (UniProt ID: Q6P9J9) bearing a 3C cleavage site, a Venus YFP, a Myc tag, and a Streptavidin-binding peptide (SBP) downstream of the open reading frame in a modified pcDNA3.1 vector (Invitrogen) were used as described previously[21],[31]. Mutations were introduced using a modified QuikChange method[58] and were verified by sequencing.
HEK293T cells were transfected with 3–4 μg DNA per 6 cm Petri dish using the calcium phosphate co-precipitation method and were used within 24–96 h after transfection. Recordings were performed on inside-out patches excised from HEK293T cells expressing the construct of interest. Patch pipettes were pulled from borosilicate glass capillaries (O.D. 1.5 mm, I.D. 0.86 mm, Sutter Instrument) and were fire-polished with a microforge (Narishige) before use. Pipette resistance was typically 3–8 MΩ when filled with the recording solutions detailed below. Seal resistance was typically 4 GΩ or higher. Voltage-clamp recordings were made using Axopatch 200B, Digidata 1550, and Clampex 10.7 (Molecular Devices). Analog signals were filtered with the in-built 4-pole Bessel filter at 10 kHz and were digitized at 20 kHz. Solution exchange was achieved using a gravity-fed system through a theta glass pipette mounted on an ultra-fast piezo-driven stepper (Siskiyou). […] All recordings were performed at 20 °C.
A symmetrical ionic condition was used throughout. Stock solution with Ca^2+-EGTA contained 150 mM NaCl, 5.99 mM Ca(OH)2, 5 mM EGTA, and 10 mM HEPES at pH 7.40. Stock solution with EGTA contained 150 mM NaCl, 5 mM EGTA, and 10 mM HEPES at pH 7.40. Free Ca^2+ concentrations were adjusted by mixing the stock solutions at the required ratios calculated using the WEBMAXC program (http://web.stanford.edu/~cpatton/webmaxcS.htm). Patch pipettes were filled with the stock solution with Ca^2+-EGTA, which has a free Ca^2+ concentration of 1 mM. 1PBC (ChemBridge) stock was reconstituted in anhydrous DMSO (Sigma-Aldrich) at 100 mM and stored at −20 °C. Working solutions with 1PBC were prepared by serial dilution. Unless otherwise stated, experiments were performed at a saturating Ca^2+ concentration as shown in Supplementary Table 1 and the primary data were corrected for current rundown as described previously[21],[25].
Concentration-response relations, obtained from the ratio of the I-V plots before and after the application of the blocker, were fitted to the Hill equation,1 I/Imax=1/1+IC50/[blocker]^h where I/Imax is the normalized current responses, IC50 defines the concentration at which inhibition is at its half-maximum, and h is the Hill coefficient.

N#Cc1c(C(F)(F)F)cc(O)n2c1nc1ccccc12 [1PBC]
IC50 (0 mV): 31.5 µM | remaining activity at 3 µM (0 mV, 1PBC conc 3, read-out: relative current in 1PBC (avr)): 90.3% | remaining activity at 10 µM (0 mV, 1PBC conc 10, read-out: relative current in 1PBC (avr)): 75.5% | remaining activity at 30 µM (0 mV, 1PBC conc 30, read-out: relative current in 1PBC (avr)): 52.3% | remaining activity at 100 µM (0 mV, 1PBC conc 100, read-out: relative current in 1PBC (avr)): 23.3% | remaining activity at 3 µM (3 µM 1PBC, +80 mV, saturating Ca2+ (15 µM), read-out: I/Imax): 89.4% | remaining activity at 3 µM (3 µM 1PBC, -80 mV, saturating Ca2+ (15 µM), read-out: I/Imax): 92.4% | remaining activity at 10 µM (10 µM 1PBC, +80 mV, saturating Ca2+ (15 µM), read-out: I/Imax): 67.9% | remaining activity at 10 µM (10 µM 1PBC, -80 mV, saturating Ca2+ (15 µM), read-out: I/Imax): 84.6% | remaining activity at 30 µM (30 µM 1PBC, +80 mV, saturating Ca2+ (15 µM), read-out: I/Imax): 43% | remaining activity at 30 µM (30 µM 1PBC, -80 mV, saturating Ca2+ (15 µM), read-out: I/Imax): 64.1% | remaining activity at 100 µM (100 µM 1PBC, +80 mV, saturating Ca2+ (15 µM), read-out: I/Imax): 17.7% | remaining activity at 100 µM (100 µM 1PBC, -80 mV, saturating Ca2+ (15 µM), read-out: I/Imax): 34.6% | normalised current (avr) (1PBC 3, V 0 mV): -0.001271 | normalised current (avr) (1PBC 3, V 40 mV): 0.2411 | normalised current (avr) (1PBC 3, V 60 mV): 0.367 | normalised current (avr) (1PBC 3, V 80 mV): 0.5025 | normalised current (avr) (1PBC 3, V 100 mV): 0.651 | normalised current (avr) (1PBC 3, V 120 mV): 0.7973 | normalised current (avr) (1PBC 3, V 140 mV): 0.965 | normalised current (avr) (1PBC 3, V -20 mV): -0.1226 | normalised current (avr) (1PBC 3, V -40 mV): -0.2495 | normalised current (avr) (1PBC 3, V -60 mV): -0.3836 | normalised current (avr) (1PBC 3, V -80 mV): -0.5286 | normalised current (avr) (1PBC 3, V -100 mV): -0.6862 | normalised current (avr) (1PBC 3, V -120 mV): -0.8514 | normalised current (avr) (1PBC 3, V -140 mV): -1.031 | normalised current (avr) (1PBC 10, V 0 mV): -0.001063 | normalised current (avr) (1PBC 10, V 40 mV): 0.1907 | normalised current (avr) (1PBC 10, V 60 mV): 0.2862 | normalised current (avr) (1PBC 10, V 80 mV): 0.3819 | normalised current (avr) (1PBC 10, V 100 mV): 0.495 | normalised current (avr) (1PBC 10, V 120 mV): 0.6083 | normalised current (avr) (1PBC 10, V 140 mV): 0.7528 | normalised current (avr) (1PBC 10, V -20 mV): -0.1054 | normalised current (avr) (1PBC 10, V -40 mV): -0.2204 | normalised current (avr) (1PBC 10, V -60 mV): -0.3486 | normalised current (avr) (1PBC 10, V -80 mV): -0.4836 | normalised current (avr) (1PBC 10, V -100 mV): -0.6367 | normalised current (avr) (1PBC 10, V -120 mV): -0.7969 | normalised current (avr) (1PBC 10, V -140 mV): -0.9705 | normalised current (avr) (1PBC 30, V 0 mV): -0.0007361 | normalised current (avr) (1PBC 30, V 40 mV): 0.1262 | normalised current (avr) (1PBC 30, V 60 mV): 0.1828 | normalised current (avr) (1PBC 30, V 80 mV): 0.2416 | normalised current (avr) (1PBC 30, V 100 mV): 0.3073 | normalised current (avr) (1PBC 30, V 120 mV): 0.3826 | normalised current (avr) (1PBC 30, V 140 mV): 0.476 | normalised current (avr) (1PBC 30, V -20 mV): -0.07452 | normalised current (avr) (1PBC 30, V -40 mV): -0.1601 | normalised current (avr) (1PBC 30, V -60 mV): -0.2555 | normalised current (avr) (1PBC 30, V -80 mV): -0.3668 | normalised current (avr) (1PBC 30, V -100 mV): -0.4877 | normalised current (avr) (1PBC 30, V -120 mV): -0.6228 | normalised current (avr) (1PBC 30, V -140 mV): -0.7629 | normalised current (avr) (1PBC 100, V 0 mV): -0.0003287 | normalised current (avr) (1PBC 100, V 60 mV): 0.07288 | normalised current (avr) (1PBC 100, V 80 mV): 0.09923 | normalised current (avr) (1PBC 100, V 100 mV): 0.1285 | normalised current (avr) (1PBC 100, V 120 mV): 0.1506 | normalised current (avr) (1PBC 100, V 140 mV): 0.1846 | normalised current (avr) (1PBC 100, V -20 mV): -0.0346 | normalised current (avr) (1PBC 100, V -40 mV): -0.07836 | normalised current (avr) (1PBC 100, V -60 mV): -0.1311 | normalised current (avr) (1PBC 100, V -80 mV): -0.1979 | normalised current (avr) (1PBC 100, V -100 mV): -0.2777 | normalised current (avr) (1PBC 100, V -120 mV): -0.3667 | normalised current (avr) (1PBC 100, V -140 mV): -0.4836 | IC50 (20 mV): 27.5 µM | remaining activity at 3 µM (20 mV, 1PBC conc 3, read-out: relative current in 1PBC (avr)): 89.4% | remaining activity at 10 µM (20 mV, 1PBC conc 10, read-out: relative current in 1PBC (avr)): 72.5% | remaining activity at 30 µM (20 mV, 1PBC conc 30, read-out: relative current in 1PBC (avr)): 49.1% | remaining activity at 100 µM (20 mV, 1PBC conc 100, read-out: relative current in 1PBC (avr)): 20.9% | IC50 (40 mV): 24.7 µM | remaining activity at 3 µM (40 mV, 1PBC conc 3, read-out: relative current in 1PBC (avr)): 89% | remaining activity at 10 µM (40 mV, 1PBC conc 10, read-out: relative current in 1PBC (avr)): 70.4% | remaining activity at 30 µM (40 mV, 1PBC conc 30, read-out: relative current in 1PBC (avr)): 46.6%
